This passage reports EC50, IC50 and inhibition results from patent US20230391772A1, “METHODS AND COMPOSITIONS FOR TARGETED PROTEIN DEGRADATION” (Ranok Therapeutics (Hangzhou) Co. Ltd., priority 2020, published 2023).

Assay [1] concerns NCI-H23 human non-small cell lung cancer. The assay is described as follows: NCI-H23 CCK-8 proliferation assay. Format: cell-based. The settings on record: NCI-H23 cells, 72 hr. The procedure, abridged: (§1)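 Percent inhibition derived from CCK-8 optical signal, normalised between DMSO-only cells (0%) and cell-free medium containing DMSO as background. Cells: MIA PaCa-2 carrying 2 KRAS(G12C) copies; NCI-H358, NCI-H23 carrying 1 copy apiece. Concentrations spanned 1.02 nM–20 μM in threefold increments.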

Assay [2] concerns the target T1, HSP90a protein (Homo sapiens, UniProt P07900).
T1 construct: purchased BPS Bioscience 50298
The assay is described as follows: HSP90α-binding fluorescent polarization (FP) assay, BODIPY-labeled RNK04010 probe. Conditions: FP competition with RNK04010 (BODIPY-labeled), 5 nM, 300 min at 25° C. The procedure, abridged:
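Competitive FP with N-terminal HSP90a; probe at 5 nM final, either BODIPY-labeled triazolone RNK04010 or FITC-geldanamycin. Test compounds as 2.5-fold dilutions from 20 μM to 5.2 nM. Incubated at 25 °C for 300 min (RNK04010) or 120 min (FITC-geldanamycin) before reading polarization.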

Assay [3] has as its target T2, KRAS(G12C) (Homo sapiens, UniProt P01116, G12C). The assay is described as follows: KRAS(G12C) Western blot protein degradation assay in MIA PaCa-2 cells. The format is cell-based. On the set-up: host or cells: LU65A. Conditions: 48 hr. On the procedure: The following cancer cell lines were employed: BT-474 human breast carcinoma (ATCC, #HTB-20); MIA PaCa-2 human pancreatic carcinoma [2 copies KRAS(G12C)](ATCC, #CRL-1420); NCI-H23 human non-small cell lung cancer [1 copy KRAS(G12C)](ATCC, #CRL-5800); NCI-H358 human non-small cell lung cancer [1 copy KRAS(G12C)](ATCC, #CRL-5807); LU65A human lung carcinoma (Pharmaron, Beijing, China). Cell lines were cultured essentially according to ATCC and Pharmaron recommendations.
KRAS(G12C) Western Blot Protein Degradation Assay
The MIA PaCa-2 human pancreatic carcinoma cell line and LU65A human lung cancer cell line, which expresses KRAS(G12C), were seeded in 6- or 12-well tissue culture plates, and after 1 hr, test compounds were added at various concentrations and incubated at 37° C./5% CO2 for 48 hr (MIA Paca-2) and 6 hr (LU65A) respectively. Cells were then washed with cold PBS, aspirated and cold RIPA buffer containing a protease/phosphatase inhibitor cocktail was added to lyse cells. After centrifugation, the total protein concentrations of cell lysates were determined using the BCA protein assay. Samples were normalized for equivalent protein concentrations, 5×SDS-PAGE loading buffer added and denatured at 100° C. for 10 min. 20 μl of each sample/well was loaded on a SDS-PAGE gel and electrophoresed for 20 min at 80 V, then 120 V for 1.5 hr. Gels were then electroblotted to nitrocellulose membranes using a wet-transfer method at 250 mA for 2.5 hr. Membranes were incubated with blocking buffer for 1 hr and washed 3 times with TBST for 5 min. Membranes were then incubated with anti-KRAS (Sigma-Aldrich, #SAB1404011) and anti-β-Actin monoclonal antibodies (Cell Signaling Technology, #3700) diluted in blocking buffer at 4° C. overnight per the manufacturer's recommendations. After washing 3 times, blots were incubated with appropriately labeled secondary antibodies for 1 hr at room temperature and washed again. Fluorescence imaging and quantitation was performed using a LI-COR Odyssey. Results was analyzed using GraphPad Prism 7 software. Compound degradation of was determined by the following equation and DC50 values (the concentration at which 50% of the maximal degradation of KRAS occurs) calculated using GraphPad Prism 7 software:
% Inhibition=100−(D−B)/(S−B)*100%. • S: Fluorescence intensity of cells with antibody • D: Fluorescence intensity of compound-treated cells with antibody • B: Fluorescence intensity of cells without antibody

Assay [4] has as its target T2, KRAS(G12C). The assay is described as follows: KRAS(G12C)/SOS1 homogeneous time-resolved fluorescence (HTRF) assay. On the set-up: purchased Cisbio 63ADK000CB16PEG. Conditions: absence of GTP, 4° C. for 3 hr, read-out: KRAS (G12C) binding. In a few lines:
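HTRF kit measuring compound-induced block of KRAS(G12C)-SOS1 interaction without GTP. Compounds tested as 3-fold serial dilutions down to 1.02 nM, incubated with reaction components 3 h at 4 °C in sealed plates before fluorescence read.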

Assay [5] concerns NCI-H358 human non-small cell lung cancer. The assay is described as follows: NCI-H358 CCK-8 proliferation assay. Format: cell-based. The settings on record: NCI-H358 cells, 72 hr. The procedure, abridged:
as §1

The test system of assay [6] is MIA PaCa-2 human pancreatic carcinoma. The assay is described as follows: MIA PaCa-2 CCK-8 proliferation assay. Format: cell-based. Conditions: Homo sapiens, MIA PaCa-2, 72 h, MIA PaCa-2 cells. The procedure, abridged:
as §1

Assay [7] deals with T1, HSP90a protein. The assay is described as follows: HSP90α-binding fluorescent polarization (FP) assay, FITC-geldanamycin probe. Conditions: FP competition with FITC-geldanamycin, 5 nM, 120 min at 25° C. On the procedure:
HSP90α-Binding Fluorescent Polarization (FP) Assay
Binding of test compounds to HSP90a protein was measured by fluorescent polarization (FP) using the HSP90a (N-terminal) Assay Kit (BPS Bioscience, #50298), following the manufacturer's instructions, except as noted. Fluorescently labeled HSP90-binding compounds, either the provided FITC-geldanamycin (5 nM final concentration) or RNK04010, a triazolone-based HSP90 binding small molecule labeled with BODIPY through a piperizine-phenyl linker (5 nM final concentration) were employed. A 2.5-fold serial dilution of each test compound ranging from 20 μM to 5.2 nM was assayed for binding to HSP90a. After the final step of adding HSP90a protein to each assay well, plates were mixed by brief shaking, incubated at 25° C. for 120 min for FITC-geldanamycin or 300 min for RNK04010, and fluorescence was measured using a PerkinElmer EnVision Plate Reader.

The structures appear in SMILES notation.

T2 sequence (P01116 1-188 isoform P01116-2 G12C): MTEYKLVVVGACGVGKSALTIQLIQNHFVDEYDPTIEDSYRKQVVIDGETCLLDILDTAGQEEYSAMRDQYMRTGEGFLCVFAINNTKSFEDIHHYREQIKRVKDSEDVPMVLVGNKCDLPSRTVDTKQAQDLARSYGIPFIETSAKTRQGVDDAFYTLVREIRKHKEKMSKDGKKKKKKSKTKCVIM

With `C=CC(=O)N1CCN(c2nc(NCCC(=O)N3CCC(Cc4ccc(CN(C)Cc5ccc(-n6c(C(=O)NCC(F)(F)F)nnc6-c6cc(C(C)C)c(O)cc6O)cc5)cc4)CC3)nc3c2CCN(c2cc(O)cc4ccccc24)C3)CC1` [Compound 16, 4-(4-(((4-((1-(3-((4-(4-acryloylpiperazin-1-yl)-7-(3-hydroxynaphthalen-1-yl)-5,6,7,8-tetrahydropyrido[3,4-d]pyrimidin-2-yl)amino)propanoyl)piperidin-4-yl)methyl)benzyl)(methyl)amino)methyl)phenyl)-5-(2,4-dihydroxy-5-isopropylphenyl)-N-(2,2,2-trifluoroethyl)-4H-1,2,4-triazole-3-carboxamide, trifluoroacetic acid], the EC50 in assay [1] was 100 to 1000 nM; in assay [5], 100 to 1000 nM; in assay [6], under 100 nM. The IC50 in assay [2] and in assay [4] was over 1000 nM throughout. In assay [3] (156.2 nM), this compound displayed an inhibition at 0.1562 µM of under 33%. Moreover, in assay [3] (312.5 nM), the inhibition at 0.3125 µM was under 33%. The inhibition at 0.625 µM in assay [3] (625 nM) was under 33%. In assay [3] (1250 nM), this compound registered an inhibition at 1.25 µM of under 33%. In assay [3] (2500 nM), this compound gave an inhibition at 2.5 µM of under 33%. In addition, the inhibition at 5 µM in assay [3] (5000 nM) is under 33%. Moreover, the inhibition at 10 µM in assay [3] (10,000 nM) was under 33%.

As to `C=C(F)C(=O)N1CCN(c2nc(OC[C@@H]3CCN(C(=O)c4ccc5c(c4)CN(C(=O)c4cc(C(C)C)c(O)cc4O)C5)C3)nc3c2CCN(c2cccc4cccc(Cl)c24)C3)C[C@@H]1CC#N` [Compound 165, 2-((S)-4-(7-(8-chloronaphthalen-1-yl)-2-(((R)-1-(2-(2,4-dihydroxy-5-isopropylbenzoyl)isoindoline-5-carbonyl)pyrrolidin-3-yl)methoxy)-5,6,7,8-tetrahydropyrido[3,4-d]pyrimidin-4-yl)-1-(2-fluoroacryloyl)piperazin-2-yl)acetonitrile], the IC50 in assay [7] was in the range of 100 to 1000 nM. This compound also had an EC50 in assay [6] of over 1000 nM.

The compound `C=C(F)C(=O)N1CCN(c2nc(OC[C@@H]3CCN(C(=O)C4CCN(Cc5ccc(-n6c(C(N)=O)nnc6-c6cc(C(C)C)c(O)cc6O)cc5)CC4)C3)nc3c2CCN(c2cccc4cccc(Cl)c24)C3)C[C@@H]1CC#N` [Compound 166, 4-(4-((4-((R)-3-(((7-(8-chloronaphthalen-1-yl)-4-((S)-3-(cyanomethyl)-4-(2-fluoroacryloyl)piperazin-1-yl)-5,6,7,8-tetrahydropyrido[3,4-d]pyrimidin-2-yl)oxy)methyl)pyrrolidine-1-carbonyl)piperidin-1-yl)methyl)phenyl)-5-(2,4-dihydroxy-5-isopropylphenyl)-4H-1,2,4-triazole-3-carboxamide] returned an IC50 in assay [7] of 100 to 1000 nM. In assay [6], this compound displayed a half-maximal effective concentration (EC50) of under 100 nM.

The compound `C=C(F)C(=O)N1CCN(c2nc(OC[C@@H]3CCN(C(=O)C4CCN(Cc5ccc(-n6c(O)nnc6-c6cc(CC)c(O)cc6O)cc5)CC4)C3)nc3c2CCN(c2cccc4cccc(Cl)c24)C3)C[C@@H]1CC#N` [Compound 167, 2-((S)-4-(7-(8-chloronaphthalen-1-yl)-2-(((R)-1-(1-(4-(3-(5-ethyl-2,4-dihydroxyphenyl)-5-hydroxy-4H-1,2,4-triazol-4-yl)benzyl)piperidine-4-carbonyl)pyrrolidin-3-yl)methoxy)-5,6,7,8-tetrahydropyrido[3,4-d]pyrimidin-4-yl)-1-(2-fluoroacryloyl)piperazin-2-yl)acetonitrile] yielded an IC50 in assay [7] of under 100 nM. Besides, the EC50 in assay [6] lay within 100 to 1000 nM.

Take `CC(C)c1cc(-c2nnc(O)n2-c2ccc(CN3CCC(C(=O)N4CC[C@@H](COc5nc6c(c(N7CCN(C(N)=O)[C@@H](CC#N)C7)n5)CCN(c5cccc7cccc(Cl)c57)C6)C4)CC3)cc2)c(O)cc1O` [Compound 169, (S)-4-(7-(8-chloronaphthalen-1-yl)-2-(((R)-1-(1-(4-(3-(2,4-dihydroxy-5-isopropylphenyl)-5-hydroxy-4H-1,2,4-triazol-4-yl)benzyl)piperidine-4-carbonyl)pyrrolidin-3-yl)methoxy)-5,6,7,8-tetrahydropyrido[3,4-d]pyrimidin-4-yl)-2-(cyanomethyl)piperazine-1-carboxamide]: the IC50 in assay [7] is under 100 nM. This compound also gave an EC50 in assay [6] of 100 to 1000 nM.
